Reference: patent publication US12441688B1, “CCR5 inhibitor” (KING SAUD UNIVERSITY, priority 2025, dated 2025)

Target: T1, CCR5 receptor (Homo sapiens, UniProt P51681)
T1 construct: expressed in transfected cells; host or cells: Chinese hamster ovary (CHO) cells expressing the CCR5 receptor, kept under blasticidin S selection
Assay: CCR5 binding inhibition assay in CHO cells expressing the CCR5 receptor
Source text: All of the reagents and cell lines were obtained from commercial suppliers like Sigma Aldrich, Merck India Ltd., Himedia, and Rankem chemicals. Chinese Hamster Ovaries (CHO) cells expressing the CCR5 receptor were maintained in Ham's F-12 medium supplemented with 10% fetal calf serum, 50 units of penicillin per milliliter, and 50 micrograms of streptomycin per milliliter, in the presence of 5 micrograms of blasticidin S hydrochloride per milliliter. […] The cells were then washed. […] The inhibitory activity of the compounds on CCR5 binding was calculated using the formula: [1−(E−N)/(P−N)]×100%.
In this formula, N represents the absorbance at 450 nm in the negative control (the control antibody), while P corresponds to the absorbance in the positive control (the detecting antibody). E corresponds to the absorbance of the test compounds.
The data was analyzed using non-linear regression analysis to determine the IC50 values for both compounds.

T1 sequence (P51681 whole entry): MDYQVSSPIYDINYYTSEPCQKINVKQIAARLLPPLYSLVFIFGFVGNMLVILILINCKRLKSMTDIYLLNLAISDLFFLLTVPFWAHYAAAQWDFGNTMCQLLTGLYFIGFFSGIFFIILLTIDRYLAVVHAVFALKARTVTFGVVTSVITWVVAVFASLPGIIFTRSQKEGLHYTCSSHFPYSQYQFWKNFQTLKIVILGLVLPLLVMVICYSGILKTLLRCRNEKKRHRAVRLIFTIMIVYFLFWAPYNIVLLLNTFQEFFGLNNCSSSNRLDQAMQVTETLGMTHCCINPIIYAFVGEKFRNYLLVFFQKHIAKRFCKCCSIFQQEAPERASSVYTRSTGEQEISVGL

Percent inhibition against CCR5 (1 nM compound, listed as test compound, 0.001 µM) [%]	inhibition at 0.001 µM (1 nM compound, read-out: Percent inhibition against CCR5) [%]	Percent inhibition against CCR5 (10 nM compound, listed as test compound, 0.01 µM) [%]	inhibition at 0.01 µM (10 nM compound, read-out: Percent inhibition against CCR5) [%]	Percent inhibition against CCR5 (100 nM compound, 0.1 µM) [%]	inhibition at 0.1 µM (100 nM compound, read-out: Percent inhibition against CCR5) [%]	Percent inhibition against CCR5 (1000 nM compound, 1 µM) [%]	inhibition at 1 µM (1000 nM compound, read-out: Percent inhibition against CCR5) [%]	Percent inhibition against CCR5 (2000 nM compound, listed as test compound, 2 µM) [%]	inhibition at 2 µM (2000 nM compound, read-out: Percent inhibition against CCR5) [%]	IC50 (non-linear regression) [nM]	Compound	Percent inhibition against CCR5 (1 nM compound) [%]	Percent inhibition against CCR5 (10 nM compound) [%]	Percent inhibition against CCR5 (100 nM compound) [%]	Percent inhibition against CCR5 (1000 nM compound) [%]	Percent inhibition against CCR5 (2000 nM compound) [%]
24.5	≥ 24.5	39.8	≥ 39.8	59.1 ± 3.12	≥ 59.1	78.2 ± 4.75	≥ 78.2	91.3	≥ 91.3	2.62	Cc1n[nH]c(C(C)C)c1C(=O)N1CCCN(Cc2ccc(Oc3ccc(C#N)cc3)cc2)CC1 [Novel Compound, 4-(4-((4-(5-isopropyl-3-methyl-1H-pyrazole-4-carbonyl)-1,4-diazepan-1-yl)methyl)phenoxy)benzonitrile]	–	–	–	–	–
–	–	–	–	–	–	–	–	–	–	–	Maraviroc [reference compound]	20.0 ± 1.93	28.5 ± 2.40	55.1 ± 2.81	68.2 ± 2.97	85.3
